Key:
[1] = Synovial fluid and serum drug concentrations after single i.a. injection in arthritic rabbits; details: rabbit, single 0.1 ml i.a. injection
Protocol: (§1) At 3-day intervals over a 3-week period, joint swelling (circumference) is assessed, synovial fluid samples (25 μl) are collected for analysis of salicylate and betamethasone concentrations, and venous blood samples (0.5 ml) are collected for analysis of salicylate and betamethasone serum concentrations and ovalbumin antibody titers. At the end of 3 weeks the animals are sacrificed for histological assessment of joint damage.
as §1, with “(circumference) was” for “(circumference) is”, “μl) were” for “μl) are”, “and lidocaine” for “and betamethasone”, “ml) were” for “ml) are”, “animals were” for “animals are”
as §1, with “morphine” for “betamethasone”
as §1, with “μl) were” for “μl) are”, “of salicylate, lidocaine,” for “of salicylate”, “and morphine” for “and betamethasone”

[2] = system: experimental model of arthritis created by injecting ovalbumin into the knees of rabbits; test: Ovalbumin-induced arthritis (chronic synovitis) in rabbit knees: joint swelling, ovalbumin antibody titers, histological joint damage; assay type: in vivo; details: compared to vehicle controls, during the 3-week period (Example 1)
Protocol: as §1
as §1, with “(circumference) was” for “(circumference) is”, “μl) were” for “μl) are”, “and lidocaine” for “and betamethasone”, “ml) were” for “ml) are”, “animals were” for “animals are”
as §1, with “morphine” for “betamethasone”, “damage. […]” for “damage.”

[3] = sampled at 3-day intervals over 3 weeks

Row | Structure (SMILES) | betamethasone levels (synovial fluid and serum) ([1]; after the early time points) | betamethasone levels in serum ([1]; early time points) | betamethasone levels in synovial fluid ([1]; early time points) | joint swelling [2] | serum ovalbumin antibody titers [2] | morphine serum levels [1, 3] | morphine synovial fluid levels [1, 3]
1 | C[C@H]1C[C@H]2[C@@H]3CCC4=CC(=O)C=C[C@]4(C)[C@@]3(F)[C@@H](O)C[C@]2(C)[C@@]1(O)C(=O)COP(=O)([O-])[O-].[Na+].[Na+] [betamethasone, betamethasone sodium phosphate] | undetectable | low | low | significantly reduced | significantly reduced | – | –
2 | CN1CC[C@]23c4c5ccc(O)c4O[C@H]2[C@@H](O)C=C[C@H]3[C@H]1C5.O=S(=O)(O)O [morphine, morphine sulfate] | – | – | – | – | – | undetectable | undetectable

Reference: US20070098800A1, “Therapeutic compositions” (priority 2002, published 2007)
